Test results reported in ChEMBL document CHEMBL4706632, “Development of Potential Antitumor Agents from the Scaffolds of Plant-Derived Terpenoid Lactones” (J Med Chem, 2020).
Blank lines part the entries; values can stand above or below the compound they belong to.

Legend:
[1] = system: HT-29; experiment: Cytotoxicity against human HT-29 cells incubated for 72 hrs by sulforhodamine B assay; assay type: functional, cell-based; conditions: HT-29, 72 h
[2] = system: L1210; experiment: Cytotoxicity against mouse L1210 cells; assay type: functional, cell-based
[3] = system: LNCaP; experiment: Cytotoxicity against human LNCaP cells; assay type: functional, cell-based
[4] = system: HCT-116; experiment: Cytotoxicity against human HCT116 cells incubated for 72 hrs by ATPlite assay; assay type: functional, cell-based; conditions: HCT-116, 72 h
[5] = system: CCRF-CEM; experiment: Cytotoxicity against human CEM cells incubated for 72 hrs by MTT assay; assay type: functional, cell-based
[6] = system: SW626; experiment: Cytotoxicity against human SW626 cells; assay type: functional, cell-based
[7] = system: Jurkat; experiment: Cytotoxicity against human Jurkat cells incubated for 72 hrs by ATPlite assay; assay type: functional, cell-based
[8] = system: HL-60; experiment: Cytotoxicity against human HL-60 cells incubated for 72 hrs by ATPlite assay; assay type: functional, cell-based; conditions: HL-60, 72 h
[9] = Cytotoxicity against human Lu-1 cells; assay type: functional, cell-based; conditions: Lu1
[10] = system: WM 266-4; experiment: Cytotoxicity against human WM 266-4 cells incubated for 72 hrs by ATPlite assay; assay type: functional, cell-based; conditions: WM 266-4, 72 h
[11] = Cmax in Sprague-Dawley rat at 10 mg/kg, po measured after 0.25 to 72 hrs by LC/QTOF/MS method; assay type: ADME, organism-based; parameters: route oral, time upper 72 hrs, time lower 0.25 hrs, dose 10 mg/kg; conditions: in vivo
[12] = system: MDA-MB-231; experiment: Antiproliferative activity against human MDA-MB-231 cells incubated for 24 hrs by MTT assay; assay type: functional, cell-based; conditions: MDA-MB-231, 24 h
[13] = system: MCF7; experiment: Antiproliferative activity against human MCF7 cells incubated for 24 hrs by MTT assay; assay type: functional, cell-based; conditions: MCF7, 24 h
[14] = Cmax in Sprague-Dawley rat at 10 mg/kg, iv measured after 0.08 to 72 hrs by LC/QTOF/MS method; assay type: ADME, organism-based; parameters: route intravenous, dose 10 mg/kg, time upper 72 hrs, time lower 0.08 hrs; conditions: in vivo

SMILES: COC/C(C)=C/[C@@H]1OC(=O)[C@H]([C@@H]2CC[C@]34C[C@]23C=C[C@@H]2[C@@]3(C)CC=C5C[C@@H](c6ccc7c(c6)OCO7)OC[C@]5(C)[C@@H]3C[C@@H](O)[C@]24C)[C@H]1O
IC50 [1]: > 10 µM

SMILES: C/C(=C\[C@H]1C[C@@H]([C@@H]2CC[C@]34C[C@]23C=C[C@@H]2[C@@]3(C)CC=C5C[C@@H](c6ccccc6)OC[C@]5(C)[C@@H]3C[C@@H](O)[C@]24C)C(=O)O1)CO [DICHAPETALIN A]
EC90 [2]: < 0.00017 µM
IC50 [3]: 12 µM
EC50 [4]: 0.25 µM
IC50 [5]: 9.6 µM
IC50 [6]: 0.34 µM
IC50 [7]: 3 µM
IC50 [8]: 11 µM
IC50 [9]: 7 µM
EC50 [10]: 17 µM

IC50 [12]: 6 µM
IC50 [13]: 4 µM
SMILES: COC(=O)C[C@H]1[C@]2(C)C3=C(C)[C@H](c4ccoc4)C[C@H]3O[C@@H]2[C@@H]2OC(=O)[C@]3(C)C=CC(=O)[C@@]1(C)[C@@H]23 [NIMBOLIDE]
Cmax [11]: 15.3 ng/mL
Cmax [14]: 5560 ng/mL
